Data from ChEMBL document CHEMBL6121054, “Discovery of Metabolic Reprogramming 2-Quinolones as Effective Antimicrobials for MRSA-Infected Wound Therapy” (J Med Chem, 2025).
Converted amounts (≈) assume the structure as drawn. The source made the active and inactive calls. No cut-off for these calls is given here.

Assays:
Staphylococcus aureus [1] = test: Antibacterial activity against Staphylococcus aureus USA400 incubated for 16 to 24 hrs by broth microdilution method; type: functional; details: time 16-24 hrs
Staphylococcus aureus [2] = test: Antibacterial activity against Staphylococcus aureus NCTC 8325-4 incubated for 16 to 24 hrs by broth microdilution method; type: functional; details: time 16-24 hrs
Staphylococcus aureus [3] = test: Antibacterial activity against Staphylococcus aureus ATCC 25904 incubated for 16 to 24 hrs by broth microdilution method; type: functional; details: time 16-24 hrs
Streptococcus suis [4] = test: Antibacterial activity against Streptococcus suis ZY05719 incubated for 16 to 24 hrs by broth microdilution method; type: functional; details: time 16-24 hrs
Acinetobacter baumannii [5] = test: Antibacterial activity against Acinetobacter baumannii ATCC 17978 incubated for 16 to 24 hrs by broth microdilution method; type: functional; details: time 16-24 hrs
Acinetobacter baumannii [6] = test: Antibacterial activity against Acinetobacter baumannii ATCC 19606 incubated for 16 to 24 hrs by broth microdilution method; type: functional; details: time 16-24 hrs
Escherichia coli [7] = test: Antibacterial activity against Escherichia coli […] incubated for 16 to 24 hrs by broth microdilution method; type: functional; details: time 16-24 hrs
Klebsiella pneumoniae [8] = test: Antibacterial activity against Klebsiella pneumoniae ATCC 43816 incubated for 16 to 24 hrs by broth microdilution method; type: functional; details: time 16-24 hrs
Staphylococcus aureus [9] = test: Bactericidal activity against methicillin-resistant Staphylococcus aureus MRSA 2; type: functional
Staphylococcus aureus [10] = test: Bactericidal activity against Staphylococcus aureus USA400; type: functional
Staphylococcus aureus [11] = test: Bactericidal activity against Staphylococcus aureus ATCC 29213; type: functional
Listeria monocytogenes [12] = test: Bactericidal activity against Listeria monocytogenes ATCC 19115; type: functional
Listeria monocytogenes [13] = test: Bactericidal activity against Listeria monocytogenes EGD; type: functional
Streptococcus suis [14] = test: Bactericidal activity against Streptococcus suis ZY05719; type: functional
Acinetobacter baumannii [15] = test: Bactericidal activity against Acinetobacter baumannii ATCC 19606; type: functional
Escherichia coli [16] = test: Bactericidal activity against Escherichia coli ATCC 25922; type: functional
Klebsiella pneumoniae [17] = test: Bactericidal activity against Klebsiella pneumoniae 13b5; type: functional
Klebsiella pneumoniae [18] = test: Bactericidal activity against Klebsiella pneumoniae E8.31; type: functional
Klebsiella pneumoniae [19] = test: Bactericidal activity against Klebsiella pneumoniae ATCC 43816; type: functional
Staphylococcus aureus [20] = test: Bactericidal activity against methicillin-resistant Staphylococcus aureus USA300 at >= 1 ug/ml measured upto 24 hrs by time-kill assay relative to control; type: functional; details: dose >= 1 µg/ml
Staphylococcus aureus [21] = test: Inhibition of resistance development in Staphylococcus aureus USA300 incubated for 24 hrs measured after 14 passages by broth microdilution method; type: functional, organism-based
Staphylococcus aureus [22] = test: Inhibition of biofilm formation in Staphylococcus aureus USA300 upto 0.13 ug/ml incubated for 24 hrs by crystal violet staining based analysis; type: functional, organism-based; details: dose <= 0.13 µg/ml
Listeria monocytogenes [23] = test: Inhibition of biofilm formation in Listeria monocytogenes EGD incubated for 24 hrs by crystal violet staining based analysis; type: functional, organism-based; details: dose <= 0.13 µg/ml
Staphylococcus aureus [24] = test: Inhibition of biofilm formation in Staphylococcus aureus USA300 assessed as decrease in green fluorescence at 0.06 to 0.13 ug/ml incubated for 24 hrs by SYTO 9 dye based CLSM analysis; type: functional, organism-based; details: dose 0.06-0.13 µg/ml
Staphylococcus aureus [25] = test: Eradication of mature biofilm formation in Staphylococcus aureus USA300 incubated for 12 hrs by crystal violet staining based analysis; type: functional, organism-based
Staphylococcus aureus [26] = test: Disruption of cell membrane integrity in Staphylococcus aureus USA300 assessed as irregular cell structures at 4 to 8 times MIC by TEM/SEM analysis; type: functional, organism-based
Staphylococcus aureus [27] = test: Disruption of cell membrane integrity in Staphylococcus aureus USA300 assessed as visible cavity formation on surface at 4 to 8 times MIC by TEM/SEM analysis; type: functional, organism-based
Staphylococcus aureus [28] = test: Disruption of cell membrane integrity in Staphylococcus aureus USA300 assessed as protein leakage at 0.25 ug/ml incubated for 6 hrs MIC by SDS-PAGE analysis; type: functional, organism-based; details: dose 0.25 µg/ml
Staphylococcus aureus [29] = test: Disruption of cell membrane integrity in Staphylococcus aureus USA300 assessed as increase in red fluorescence at 1 to 4 times MIC by SYTO-9/PI dye based CLSM analysis; type: functional, organism-based
DNA gyrase = DNA gyrase (Staphylococcus aureus, UniProt P0A0K8+P20831); test: Inhibition of Staphylococcus aureus gyrase; type: protein-complex assay
Sequence of DNA gyrase (P0A0K8 whole entry): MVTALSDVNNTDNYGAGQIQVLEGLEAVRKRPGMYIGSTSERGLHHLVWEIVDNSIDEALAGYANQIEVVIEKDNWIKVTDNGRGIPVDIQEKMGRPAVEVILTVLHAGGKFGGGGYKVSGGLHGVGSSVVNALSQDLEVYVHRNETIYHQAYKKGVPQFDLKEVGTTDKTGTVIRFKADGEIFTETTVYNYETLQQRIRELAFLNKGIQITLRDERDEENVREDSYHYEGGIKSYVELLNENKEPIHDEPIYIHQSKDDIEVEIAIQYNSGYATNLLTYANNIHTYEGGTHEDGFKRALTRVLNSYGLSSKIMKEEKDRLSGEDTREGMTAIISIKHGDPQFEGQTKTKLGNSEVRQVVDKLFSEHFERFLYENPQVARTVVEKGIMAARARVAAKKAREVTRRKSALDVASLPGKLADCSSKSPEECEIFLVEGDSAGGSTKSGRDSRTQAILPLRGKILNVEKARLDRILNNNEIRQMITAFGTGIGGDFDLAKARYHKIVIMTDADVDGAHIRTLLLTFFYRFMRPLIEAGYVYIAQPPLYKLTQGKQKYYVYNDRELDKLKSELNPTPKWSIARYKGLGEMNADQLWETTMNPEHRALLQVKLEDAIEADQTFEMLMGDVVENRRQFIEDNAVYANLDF
Sequence of DNA gyrase (P20831 whole entry): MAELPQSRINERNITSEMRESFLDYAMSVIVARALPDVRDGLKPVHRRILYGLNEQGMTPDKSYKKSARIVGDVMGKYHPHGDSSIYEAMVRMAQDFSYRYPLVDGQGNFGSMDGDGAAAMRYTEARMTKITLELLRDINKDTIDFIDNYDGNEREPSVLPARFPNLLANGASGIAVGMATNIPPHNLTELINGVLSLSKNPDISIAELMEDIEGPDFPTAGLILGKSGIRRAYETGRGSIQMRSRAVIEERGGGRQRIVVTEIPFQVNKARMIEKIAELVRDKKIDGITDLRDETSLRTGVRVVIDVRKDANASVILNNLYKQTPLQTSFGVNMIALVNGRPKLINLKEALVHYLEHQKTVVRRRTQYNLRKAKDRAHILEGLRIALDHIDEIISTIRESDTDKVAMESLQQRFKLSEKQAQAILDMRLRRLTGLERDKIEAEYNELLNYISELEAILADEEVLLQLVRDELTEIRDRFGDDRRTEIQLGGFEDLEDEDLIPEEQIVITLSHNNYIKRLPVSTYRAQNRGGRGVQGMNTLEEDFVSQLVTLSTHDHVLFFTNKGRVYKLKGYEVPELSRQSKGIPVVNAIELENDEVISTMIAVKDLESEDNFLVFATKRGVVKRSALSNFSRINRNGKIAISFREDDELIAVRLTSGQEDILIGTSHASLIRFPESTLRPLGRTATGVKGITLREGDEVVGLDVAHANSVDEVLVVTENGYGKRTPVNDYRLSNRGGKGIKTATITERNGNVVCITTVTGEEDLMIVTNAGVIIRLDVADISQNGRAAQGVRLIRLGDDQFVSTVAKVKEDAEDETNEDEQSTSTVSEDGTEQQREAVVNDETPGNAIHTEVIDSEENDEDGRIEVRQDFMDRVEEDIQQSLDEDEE

Staphylococcus aureus [30] = test: Effect on pyrimidine metabolism in Staphylococcus aureus USA300 at 4 times MIC by KEGG analysis; type: functional, organism-based
Staphylococcus aureus [31] = test: Effect on TCA cycle in Staphylococcus aureus USA300 at 4 times MIC by KEGG analysis; type: functional, organism-based
Staphylococcus aureus [32] = test: Effect on tyrosine metabolism in Staphylococcus aureus USA300 at 4 times MIC by KEGG analysis; type: functional, organism-based
Staphylococcus aureus [33] = test: Effect on lysine degradation in Staphylococcus aureus USA300 at 4 times MIC by KEGG analysis; type: functional, organism-based
Staphylococcus aureus [34] = test: Effect on histidine metabolism in Staphylococcus aureus USA300 at 4 times MIC by KEGG analysis; type: functional, organism-based
Staphylococcus aureus [35] = test: Antibacterial activity against Staphylococcus aureus USA300 assessed as acceleration of TCA cycle measured by increase in icd mRNA level upto 0.25 ug/ml incubated for 6 hrs by RT-PCR analysis; type: functional, organism-based; details: dose <= 0.25 µg/ml
Staphylococcus aureus [36] = test: Induction of ROS accumulation in Staphylococcus aureus USA300 upto 0.25 ug/ml incubated for 1 hr by DCFH-DA dye based analysis; type: functional, organism-based; details: dose <= 0.25 µg/ml
Staphylococcus aureus [37] = test: Impairment of antioxidant defense system in Staphylococcus aureus USA300 upto 0.25 ug/ml by WST-8 assay; type: functional, organism-based; details: dose <= 0.25 µg/ml
Staphylococcus aureus [38] = test: Upregulation of ATP level in Staphylococcus aureus USA300 upto 0.25 ug/ml incubated for 5 hrs; type: functional, organism-based; details: dose <= 0.25 µg/ml
Staphylococcus aureus [39] = test: Antibacterial activity against Staphylococcus aureus USA300 at 2 times MIC measured upto 24 hrs in presence of alpha-tocopherol; type: functional, organism-based
[40] = Hemolytic activity in rabbit RBCs upto 8 ug/ml incubated for 1 hr; type: toxicity, cell-based, Oryctolagus cuniculus; details: erythrocyte, dose < 8 µg/ml
Staphylococcus aureus [41] = test: Antibacterial activity against methicillin-resistant Staphylococcus aureus infected in BALB/c mouse wound model assessed as neovascularization in skin tissue at 20 to 80 mg/kg administered topically on days 0, 3 and 6 measured for 6 to 12 days by H and E staining based analysis; type: functional, organism-based; details: dose 20-80 mg/kg, route top, time 6-12 day
Staphylococcus aureus [42] = test: Antibacterial activity against methicillin-resistant Staphylococcus aureus infected in BALB/c mouse wound model assessed as increase in thickness of granulation tissue at 20 to 80 mg/kg administered topically on days 0, 3 and 6 measured for 6 to 12 days by H and E staining based analysis; type: functional, organism-based; details: dose 20-80 mg/kg, route top, time 6-12 day
Staphylococcus aureus [43] = test: Antibacterial activity against methicillin-resistant Staphylococcus aureus infected in BALB/c mouse wound model assessed as organised collagen fibers in skin tissue at 20 to 80 mg/kg administered topically on days 0, 3 and 6 measured for 6 to 12 days by Masson's trichome staining based analysis; type: functional, organism-based; details: dose 20-80 mg/kg, route top, time 6-12 day
Staphylococcus aureus [44] = test: Antibacterial activity against methicillin-resistant Staphylococcus aureus infected in BALB/c mouse wound model assessed as reversal of inflammation-induced IL-1beta level in wound at 20 to 80 mg/kg administered topically on days 0, 3 and 6 measured after 12 days by ELISA; type: functional, organism-based; details: dose 20-80 mg/kg, route top, time 12.0 day

CCn1c(=O)c(C(=O)Nc2nnc(-c3ccc(C)cn3)s2)c(O)c2ccccc21
MIC (Staphylococcus aureus [1]): 0.03 µg/mL (≈ 0.0736 µM)
MIC (Staphylococcus aureus [2]): 0.03 µg/mL (≈ 0.0736 µM)
MIC (Staphylococcus aureus [3]): 0.02 µg/mL (≈ 0.0491 µM)
MIC (Streptococcus suis [4]): 0.04 µg/mL (≈ 0.0982 µM)
MIC (Acinetobacter baumannii [5]): > 512 µg/mL
MIC (Acinetobacter baumannii [6]): > 512 µg/mL
MIC (Escherichia coli [7]): > 512 µg/mL
MIC (Klebsiella pneumoniae [8]): > 512 µg/mL
MBC (Staphylococcus aureus [9]): 0.05 µg/mL (≈ 0.123 µM)
MBC (Staphylococcus aureus [10]): 0.05 µg/mL (≈ 0.123 µM)
MBC (Staphylococcus aureus [11]): 0.15 µg/mL (≈ 0.368 µM)
MBC (Listeria monocytogenes [12]): > 0.25 µg/mL
MBC (Listeria monocytogenes [13]): > 0.25 µg/mL
MBC (Streptococcus suis [14]): 0.1 µg/mL (≈ 0.245 µM)
MBC (Acinetobacter baumannii [15]): > 512 µg/mL
MBC (Escherichia coli [16]): > 512 µg/mL
MBC (Klebsiella pneumoniae [17]): > 512 µg/mL
MBC (Klebsiella pneumoniae [18]): > 512 µg/mL
MBC (Klebsiella pneumoniae [19]): > 512 µg/mL
Activity (Staphylococcus aureus [20]): ~100%
inhibition (Staphylococcus aureus [21]): Active
inhibition (Staphylococcus aureus [22]): Active
inhibition (Listeria monocytogenes [23]): Dose-dependent-effect
inhibition (Staphylococcus aureus [24]): Active
Activity (Staphylococcus aureus [25]): Active
Activity (Staphylococcus aureus [26]): Active
Activity (Staphylococcus aureus [27]): Active
Activity (Staphylococcus aureus [28]): Active
Activity (Staphylococcus aureus [29]): Active
IC50 (DNA gyrase): 1190 nM
Activity (Staphylococcus aureus [30]): Active
Activity (Staphylococcus aureus [31]): Active
Activity (Staphylococcus aureus [32]): Active
Activity (Staphylococcus aureus [33]): Active
Activity (Staphylococcus aureus [34]): Active
Activity (Staphylococcus aureus [35]): Active
Activity (Staphylococcus aureus [36]): Active
Activity (Staphylococcus aureus [37]): Active
Activity (Staphylococcus aureus [38]): Active
Activity (Staphylococcus aureus [39]): inactive
Activity [40]: Non-toxic
Activity (Staphylococcus aureus [41]): Active
Activity (Staphylococcus aureus [42]): Active
Activity (Staphylococcus aureus [43]): Active
Activity (Staphylococcus aureus [44]): Active
